Patent publication US9492368B2, “External preparation for skin” (HAYASHIBARA CO., LTD., priority 2011, dated 2016)
Like-named read-outs stand apart in the source and are kept apart here. Marks after values point to notes of the source that are not given here.

Assays:
[1] = tested on: profilaggrin; test: Differentiation of keratinocytes: profilaggrin protein expression in NHEK cells by western blotting; assay type: cell-based, human; conditions: eight days, relative to no addition = 1
Text: For the anti-wrinkle action of glucosyladenosines, the effect of glucosyladenosines on keratinocytes in the skin was examined as follows using normal human epidermal keratinocytes commonly used for evaluating accelerators for differentiating keratinocytes in the skin. Using normal human epidermal keratinocytes (derived from human newborn and commercialized by Kurabo Industries Ltd., Okayama, Japan, and abbreviated as “NHEK cells”, hereinafter), the effects of glucosyladenosines on the differentiation of keratinocytes was evaluated by comparing the expression level of profilaggrin, as a marker protein of cells in the granular layer, which is specifically expressed in the cells when keratinocytes differentiate into the cells from those in the basal lamina and which is determined by the western blotting method using an antibody specific to the marker protein. In this experiment, the increment of profilaggrin means that cells in the granular layer have been increased as a result of accelerating the differentiation of keratinocytes in the basal lamina.
NHEK Cells, which had been suspended in EpiLife medium, commercialized by Caskade Biologics Inc., Oregon, USA, containing EDGS (EpiLife Defined Growth Supplement) (abbreviated as “EpiLife medium containing EDGS”, hereinafter), were inoculated to “FALCON MULTI-WELL™ 6WELL”, 6-well plate, commercialized by Becton, Dickinson and Co., NJ, USA, which had been coated with “Cellmatorix Type IV”, a product name of collagen, commercialized by Nitta Gelatin Inc., Osaka, Japan, in a cell amount of 5×10^5 cells/1.5 ml/well; and cultured at 37° C. for two days under a 5 v/v % CO2 condition. […] As control 1, adenosine was diluted with EpiLife medium to give a final concentration of 0.1 μM, 1 μM or 10 μM, and the dilution was added to the plates in a volume of 1.5 ml/well. As control 2, EpiLife medium was only added to plates in a volume of 1.5 ml/well. Thereafter, the cells were incubated for eight days while replacing the medium in each well with a fresh preparation of the same medium as added initially every other day. The culture medium in each well was removed by aspiration, and the resulting cells were washed by adding PBS, followed by adding an extraction buffer to the cells in a volume of 100 μl/well, detaching the cells from each well with a cell scraper, and collecting the cells in “EPPENDORF TUBE”, a product name of a 1.5 ml microtube, commercialized by Eppendorf AG, Hamburg, Germany. The collected cells were mixed by a vortex mixer, suspended, allowed to stand over ice for 30 min, and centrifuged at 15,000×g for 10 min at 4° C. to collect a supernatant for use as a sample for analysis. 20 mM Tris-HCl buffer (pH 8.0) containing 2% by mass of sodium dodecyl sulfate (SDS), 1 mM edetic acid, 20 μM phenylmethylsulfonyl fluoride (PMSF), 20 μM leupeptin, and 0.1 μM aprotinin was used as an extraction buffer.
Twelve microliters of the above sample for analysis was added to eight micriloters of 2.5 w/v % SDS aqueous solution containing 5 v/v % dithiothreitol (DTT), and the mixture was in usual manner subjected to SDS-polyacrylamide gel electrophoresis after charged on an SDS-polyacrylamide gel in an amount of 20 μg protein per lane. After completing the electrophoresis, proteins contained in the gel were in usual manner transferred to a nitrocellulose membrane, which was then soaked in “BlockAce”, a product name of a blocking solution commercialized by Dainippon Sumitomo Pharma Co., Ltd., Osaka, Japan, to inhibit non-specific reactions. […]

[2] = molecular target: T1, adenosine deaminase (ADA) (Homo sapiens, UniProt P00813); conditions: 0.5 mM, pH 7.5
T1 sequence (P00813 1-363): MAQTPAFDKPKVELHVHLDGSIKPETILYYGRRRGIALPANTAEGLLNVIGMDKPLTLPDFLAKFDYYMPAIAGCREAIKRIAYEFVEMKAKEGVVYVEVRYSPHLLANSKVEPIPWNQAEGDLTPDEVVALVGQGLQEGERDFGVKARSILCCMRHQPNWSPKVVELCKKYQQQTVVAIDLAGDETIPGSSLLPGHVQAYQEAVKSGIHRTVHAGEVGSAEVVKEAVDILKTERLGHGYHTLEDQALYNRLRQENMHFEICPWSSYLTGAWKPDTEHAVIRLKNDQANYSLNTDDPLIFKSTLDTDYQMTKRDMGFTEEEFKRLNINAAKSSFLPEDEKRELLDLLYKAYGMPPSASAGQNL
Experimental: Adenosine has been confirmed to be promptly hydrolyzed into inosine and hypoxanthine by adenosine deaminase (ADA) intrinsically present in living bodies. To examine the possibility of sustainably exerting effects by glucosyladenosines as adenosine glycosides, a test for confirming whether 5′- and 3′-glucosyladenosines are hydrolyzed in living bodies was conducted using a cell lysate of a normal human fetal fibroblast as a source for an adenosine metabolism-relatedenzyme. “NHDF cells”, a normal human fetal fibroblast, commercialized by Kurabo Industries, Osaka, Japan (called “NHDF cells”, hereinafter), which had been diluted with “Dulbecco's Modified Eagle Medium “Nissui” (abbreviated as […], hereinafter), a product name of a Dulbecco's Medium Essential Medium, commercialized by Nissui Pharmaceutical Co., Ltd., Tokyo, Japan, containing 10 v/v % fetal calf serum […] (called “FCS”, hereinafter) was inoculated to 150 cm^2 culture flasks (commercialized by Corning, N.Y., USA) in a cell amount of 1.5×10^6 cells/20 ml/flask, and cultured for four days. After removing each culture supernatant, the resulting cells were treated with “Trypsin-EDTA”, a product name of 0.05% by mass of trypsin/EDTA solution, commercialized by Gibco, NY., USA, followed by collecting the cell suspensions from each flask. […] CELL DISROPTOR 185” thrice (30 sec×twice for each) for cell disruption, centrifuged at 15,000 rpm for five minutes to collect supernatants as a cell lysate. 0.9 ml of the cell lysate and 0.1 ml of phosphate buffered saline (PBS), which had been prepared by dissolving either the 5′-glucosyladenosine that had had been prepared in Experiment 1-2 or the 3′-glucosyladenosine that had had been prepared in Experiment 2 to give a concentration of 5 mM, were mixed, stirred, and allowed to react at 37° C. Reaction solutions at reaction times 0, 1, 7 and 24 hours after initiating the reaction were collected, treated with the same method as in Experiment 3, and quantified for adenosine and glucosyladenosines by an HPLC method. Relative values for concentrations of these compounds at respective reaction times were calculated when the concentration at the reaction initiation for each compound was regarded as 100%, and they are shown in Table 3 as residual percentages of adenosine or glucosyladenosines.

Nc1ncnc2c1ncn2[C@@H]1O[C@H](CO)[C@@H](O[C@H]2O[C@H](CO)[C@@H](O)[C@H](O)[C@H]2O)[C@H]1O [3′-Glucosyladenosine, α-D-glucopyranosyl-(1→3′)-adenosine]
Expression level of profilaggrin ([1]; 0.1 μM in medium): 1.6* | Expression level of profilaggrin ([1]; 1 μM in medium): 2.4** | Expression level of profilaggrin ([1]; 10 μM in medium): 2.0** | Remaining percentage ([2]; 0 h): 100% | Remaining percentage ([2]; 1 h): 95% | Remaining percentage ([2]; 7 h): 86% | Remaining percentage ([2]; 24 h): 17%

Nc1ncnc2c1ncn2[C@@H]1O[C@H](CO)[C@@H](O)[C@H]1O [Adenosine, reference compound]
Expression level of profilaggrin ([1]; 0.1 μM in medium): 1.1 | Expression level of profilaggrin ([1]; 1 μM in medium): 1.2 | Expression level of profilaggrin ([1]; 10 μM in medium): 0.9 | Remaining percentage ([2]; 0 h): 100% | Remaining percentage ([2]; 1 h): 53% | Remaining percentage ([2]; 7 h): 0% | Remaining percentage ([2]; 24 h): 0%

Nc1ncnc2c1ncn2[C@@H]1O[C@H](CO[C@H]2O[C@H](CO)[C@@H](O)[C@H](O)[C@H]2O)[C@@H](O)[C@H]1O [5′-Glucosyladenosine, α-D-glucopyranosyl-(1→5′)-adenosine]
Expression level of profilaggrin ([1]; 0.1 μM in medium): 2.1* | Expression level of profilaggrin ([1]; 1 μM in medium): 3.8** | Expression level of profilaggrin ([1]; 10 μM in medium): 2.8** | Remaining percentage ([2]; 0 h): 100% | Remaining percentage ([2]; 1 h): 101% | Remaining percentage ([2]; 7 h): 100% | Remaining percentage ([2]; 24 h): 96%
